“And” between values parts separate entries of the source, which are not always exact repeats. Equal values may be shown once. Read-outs that look alike come from different tables or passages of the source. One block for each compound: values may come before it.
Legend:
[1] = target: T1, RNA-protein complexes of GST-hnRNP-E1 and 25-nt hnRNP-E1 mRNA cis-element (Homo sapiens, UniProt Q15365, A205V); experiment: Gel-shift assay: effect of thiols, iron and deferoxamine on RNA-protein complex formation; format: binding
T1 construct: made in house; host or cells: Escherichia coli BL21
T1 sequence (Q15365 whole entry A205V, one chain of several): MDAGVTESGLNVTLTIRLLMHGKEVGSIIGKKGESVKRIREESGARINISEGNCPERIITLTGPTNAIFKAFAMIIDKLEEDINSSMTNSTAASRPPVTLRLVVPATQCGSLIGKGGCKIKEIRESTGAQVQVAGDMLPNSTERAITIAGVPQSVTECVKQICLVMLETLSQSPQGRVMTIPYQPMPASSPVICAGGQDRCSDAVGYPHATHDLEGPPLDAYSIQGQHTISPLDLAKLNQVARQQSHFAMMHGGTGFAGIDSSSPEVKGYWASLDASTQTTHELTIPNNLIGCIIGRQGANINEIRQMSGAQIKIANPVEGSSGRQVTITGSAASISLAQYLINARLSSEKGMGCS

[2] = tested on: 25-nt hnRNP-E1 cis-element-driven CAT reporter; experiment: 25-nt hnRNP-E1 cis-element-driven CAT reporter in placental 1584-HF cells; format: cell-based, human; conditions: 50-μM L-homocysteine for 3-h at 37° C.
Excerpt: To prepare pCAT-25 or pCAT-25-Mutant two pairs of oligonucleotides, one for pCAT-25, (5′-tagcaggtac AAGCTTCTCCCGCCCGCTCCCGCTCGCTCCCCATGG tgtaactagct-3′SEQ ID NO:22; 5′-agctagttaca CCATGGGGAGCGAGCGGGAGCGGGCGGGAGAAGCTT gtacctgcta-3′ SEQ ID NO:23), and one for pCAT-25-Mutant#6, (5′-tagcaggtac AAGCTTCTTCCGCCCGCTCCCGCTCGCTTCCCATGG tgtaactagct-3′ SEQ ID NO:24; 5′-agctagttaca CCATGGGGAGCGAGCGGGAGCGGGCGGGAGAAGCTT gtacctgcta-3′SEQ ID NO:25) were first linearized with HindIII and NcoI and subcloned into pCAT3 Control DNA digested with HindIII and NcoI.

[3] = target: T2, 25-nt hnRNP-E1 mRNA cis-element-bound hnRNP-E1 protein complexes (Homo sapiens, UniProt Q15365); experiment: Slot-blot capture of intracellular RNA-protein complexes in placental 1584-HF cells; format: cell-based; conditions: increasing concentrations, 2-hour exposure
T2 construct: endogenous in cells; host or cells: human placental 1584-HF / 1584-LF cells
T2 sequence (Q15365 whole entry, one chain of several): as the sequence (Q15365 whole entry A205V, one chain of several) above, with V205A counted along it
Procedure: Slot-blot hybridization was carried out under high stringency conditions to detect intracellular RNA-protein complexes (composed of endogenous hnRNP-E1 RNA cis-element-bound to cellular hnRNP-E1 proteins) in placental 1584 cells under experimental conditions that modulated the intracellular concentration of homocysteine. We employed similar principles used to capture folate receptor-α mRNA cis-element-bound hnRNP-E1 complexes in HeLa-IU1 cells. […] Following RNase treatment and proteolysis, equal aliquots of the released small mRNA cis-element fragments were probed for evidence of enrichment of hnRNP-E1 mRNA cis-element in experimental cells using a specific [^35S]labeled antisense hnRNP-E1 mRNA cis-element probe.

[4] = tested on: hnRNP-E1 mRNA; experiment: In vitro translation of hnRNP-E1; format: biochemical, human
Procedure: (§1) In vitro transcription-translation was carried out using the Linked SP6/T7 In Vitro Transcription/Translation Kit (Roche Applied Science) after addition of one of various targeted DNAs—pSPT18-25-hnRNP-E1 DNA, or Pst1-linearized plasmid pSPT18-folate receptor-α, or HPV16 L2 DNA, (0.5 μg/reaction)—to the transcription mix as described. In other experiments, the capacity for perturbing the interaction of hnRNP-E1 with the 25-nt hnRNP-E1 cis-element during in vitro translation was assessed in the presence of either scrambled oligonucleotides (5′-[…]-3′ SEQ ID NO:20) or specific antisense oligonucleotides (5′-[…]-3′ SEQ ID NO:21) generated against the 25-nt hnRNP-E1 mRNA cis-element (GenScript USA, Piscataway, N.J.).

[5] = target: hnRNP-E1 binding to folate receptor mRNA and hnRNP-E1 mRNA cis-element (Homo sapiens, UniProt Q15365); conditions: physiologically relevant thiols; cited from earlier work
Chain of hnRNP-E1 binding to folate receptor mRNA and hnRNP-E1 mRNA cis-element (Q15365 whole entry): as the sequence (Q15365 whole entry A205V, one chain of several) above, with V205A counted along it

[6] = tested on: folate receptor-α mRNA; experiment: In vitro translation of folate receptor-α; format: biochemical, human
Procedure: In vitro transcription-translation was carried out using the Linked SP6/T7 In Vitro Transcription/Translation Kit (Roche Applied Science) after addition of one of various targeted DNAs—pSPT18-25-hnRNP-E1 DNA, or Pst1-linearized plasmid pSPT18-folate receptor-α, or HPV16 L2 DNA, (0.5 μg/reaction)—to the transcription mix as described. In other experiments, the capacity for perturbing the interaction of hnRNP-E1 with the 25-nt hnRNP-E1 cis-element during in vitro translation was assessed in the presence of either scrambled oligonucleotides (5′-GCGTCGCTCGCTTCGCACGTGCGCC-3′ SEQ ID NO:20) or specific antisense oligonucleotides (5′-GGG AGC GAG CGG GCG GGA G-3′ SEQ ID NO:21) generated against the 25-nt hnRNP-E1 mRNA cis-element (GenScript USA, Piscataway, N.J.).

[7] = tested on: HPV16 L2 mRNA cis-element; experiment: Gel-shift assay of hnRNP-E1 proteins with HPV16 L2 mRNA; format: binding, Human Papillomavirus type 16; conditions: absence of reducing agents; versus wild-type and G292A
Procedure: (§2) Parenthetically, there was no significant difference in RNA binding to GST-hnRNP-E1 by use of either 32P-RNA probes or 35S-labeled RNA probes used. Other studies assessed the effect of iron(II) or iron(III) on homocysteine-induced RNA-protein interactions.
(§3) Construction of plasmids for generation of HPV16 L2 RNA, gel-shift and in vitro translation studies were carried as described with additional treatments shown in FIGS. 10A-10D

[8] = tested on: newly synthesized [^35S]folate receptors in placental 1584-HF cells; experiment: Biosynthetic rate of folate receptors after protein transfection into placental 1584-HF cells; format: cell-based, human; conditions: protein transfected in placental 1584-HF cells
Excerpt: (§4) Transfection of purified recombinant wild-type or various mutant hnRNP-E1 proteins into cells was achieved using the Xfect™ Protein Transfection Kit (Clontech, Mountain View, Calif.). Briefly, placental 1584-HF cells in 10-cm dishes at 70-80% confluence were transfected with 2.4-mL serum-free medium and Xfect Protein Transfection Reagent (1.2-mL) containing 20-μg of either wild-type hnRNP-E1-, or highest-affinity (HA)-hnRNP-E1(C293S)-mutant, or wild-type-like hnRNP-E1 (G292A)-mutant proteins and 2-μg of ß-galactosidase at 37° C. for 60-min. After cysteine-starvation for 4-h, an aliquot of cells were assessed for ß-galactosidase activity (to measure the efficiency of co-transfection of ß-galactosidase) and the remaining cells were pulsed with L-[^35S]cysteine (250-μCi) and assessed for specific [^35S]cysteine incorporated into folate receptor to determine the biosynthetic rate of this protein. A similar protocol was employed for analysis of newly synthesized [^35S]hnRNP-E1 using anti-hnRNP-E1 antiserum-coupled agarose and control agarose in order to derive values for specific [^35S]cysteine incorporated into hnRNP-E1 and thereby determine the biosynthetic rate of this protein.

[9] = tested on: HPV16 L2 RNA; experiment: In vitro translation of HPV16 L2 protein; format: biochemical, Human Papillomavirus type 16; conditions: for HPV16 L2 protein signal: after quenching excess ß-ME by NEM (2 mM)
Procedure: as §1, §3

[10] = target: [^35S]18-nt folate receptor-α mRNA cis-element; conditions: earlier studies, cited from earlier work
[11] = tested on: newly synthesized [^35S]hnRNP-E1 in placental 1584-HF cells; experiment: Biosynthetic rate of hnRNP-E1 after protein transfection into placental 1584-HF cells; format: cell-based, human; conditions: protein transfected in placental 1584-HF cells
Excerpt: as §4

[12] = tested on: 25-nt hnRNP-E1 mRNA cis-element; experiment: Gel-shift assay of hnRNP-E1 proteins with 25-nt hnRNP-E1 mRNA cis-element; format: binding, human; conditions: absence of L-homocysteine
Procedure: as §2
Recombinant GST-plasmid DNA, pGST-hnRNP-E1, pGST-hnRNP-E2, and related engineered variant plasmids were transformed into BL21 Escherichia coli from Novagen (Madison, Wis.). After induction by 1 mM isopropyl-1-thio-ß-D-galactopyranoside, the GST-hnRNP-E1 and engineered variant fusion proteins were individually purified using the B-PER GST Fusion Protein Purification Kit (Pierce, Rockford, Ill.). The eluted GST fusion proteins were dialyzed against 500 volumes of buffer to remove excess reducing reagents (such as dithiothreitol (DTT)) and assayed by SDS-PAGE and Western blots using anti-peptide hnRNP-E1 antiserum. Gel shift assays with target RNA were carried out as described.

[13] = target: [^35S]18-nt folate receptor-α mRNA cis-element; experiment: Dissociation constant (KD) of GST-hnRNP-E1 or its mutant proteins for the 18-nt folate receptor-α mRNA cis-element; format: binding, human
Procedure: (§5) Methods for testing the ability of an engineered hnRNP-E1 variant polypeptide to bind to an RNA comprising the sequence of SEQ ID NO:6 are known in the art. Such methods include, but are not limited to, RNA electrophoretic mobility shift assays, as exemplified herein, RNA pull-down assays, and oligonucleotide-targeted RNase H protection assays. Such assays are conducted in the presence or absence of homocysteine to determine the RNA-binding dependence of any particular hnRNP-E1 polypeptide tested on the presence of homocysteine. […] Additional methods are outline in Tang et al. (“Incrimination of heterogeneous nuclear ribonucleoprotein E1 (hnRNP-E1) as a candidate sensor of physiological folate deficiency.” J Biol Chem. 2011; 286(45):39100-39115), which is incorporated herein in its entirety.
(§6) Specific binding was determined by subtracting values of non-specific binding with GST from those of total binding with GST-hnRNP-E1; (however, in Table 1 and FIG. 6G, non-specific binding using bovine serum albumin (BSA) was subtracted from total binding to GST-hnRNP-E1 to determine specific binding). The KD was calculated from a Scatchard plot using GraphPad Prism 6 from GraphPad Software (San Diego, Calif.), as previously described in the art.

[14] = target: [^35S]25-nt hnRNP-E1 mRNA cis-element; experiment: Dissociation constant (KD) of GST-hnRNP-E1 or its mutant proteins for the 25-nt hnRNP-E1 mRNA cis-element; format: binding, human
Procedure: as §5, §6

[15] = listed as wild-type-like hnRNP-E1(G292A)-mutant

concentration at which RNA-protein interaction can occur ([1]; in vitro assays using purified components): ≥ 2.5 µM
Compound: N[C@@H](CCS)C(=O)O [L-Homocysteine, L-homocysteine]
RNA-protein complex formation ([1]; 10-mM glutathione in reaction mixture, from 5-μM): dose-dependent increase in RNA-protein complex formation
RNA-protein signal ([1]; increasing physiologically relevant concentrations): dose-dependent increase of RNA-protein signal
CAT activity [2]: further significant increase in CAT activity over baseline
slot-blot hybridization signal of captured RNA-protein complexes [3]: progressive dose-dependent increase in signal
translation of hnRNP-E1 ([4]; N-ethylmaleimide maintained in the reaction mixture, physiological concentrations): progressively increased translation of hnRNP-E1
hnRNP-E1 activation and mRNA-binding [5]: optimal

Compound: hnRNP-E1(C54S)-mutant: hnRNP-E1 with cysteine-54 replaced by serine (SEQ ID NO:3)
translation of folate receptor-α ([6]; presence of 2-mM NEM): maximally increased
interaction with HPV16 L2 mRNA on gel-shift assays [7]: greater interaction

basal translation of folate receptor-α mRNA in vitro ([6]; increasing NEM): diminished in a dose-dependent manner
Compound: CCN1C(=O)C=CC1=O [N-ethylmaleimide]
effect on in vitro translation of hnRNP-E1 ([4]; agent added to translation mixture (4.1-mM ß-ME)): progressive reduction in the amount of hnRNP-E1 translated

Compound: GST-hnRNP-E1: purified recombinant glutathione S-transferase fusion of wild-type human hnRNP-E1 (SEQ ID NO:1)
[^35S]cysteine-folate receptor [8]: 1.62 ± 0.11 b fmol/mg protein/h
[^35S]cysteine-folate receptor ([8]; listed as wild-type hnRNP-E1): 1.62 fmol/mg protein/h
HPV16 L2 protein signal [9]: insignificant reduction of HPV16 L2 protein signal
in vitro translation of HPV16 L2 protein ([9]; basal conditions, excess ß-ME not counteracted by NEM, dose-dependent addition): progressive reduction in the in vitro translation of HPV16 L2 protein
Kd ([10]; L-homocysteine raised to levels of mild-to-moderate folate deficiency): 0.5 nM
Kd ([10]; baseline): 1.5 nM
[^35S]cysteine-hnRNP-E1 [11]: 1.12 ± 0.23 b fmol/mg protein/h
[^35S]cysteine-hnRNP-E1 ([11]; listed as wild-type hnRNP-E1): 1.12 fmol/mg protein/h
RNA-protein gel-shift signal [12]: no RNA-protein gel-shift signals
Kd ([13]; L-Homocysteine 0 μM): 1.47 nM
Kd ([13]; L-Homocysteine 10 μM): 0.89 ± 0.16 nM
Kd ([13]; L-Homocysteine 50 μM): 0.47 nM
Kd ([14]; Iron(II) 0 μM, L-Homocysteine 25 μM): 2.74 ± 0.52 nM
Kd ([14]; Iron(II) 5 μM, L-Homocysteine 25 μM): 3.72 ± 0.34 nM
Kd ([14]; Iron(II) 25 μM, L-Homocysteine 25 μM): 6.5 ± 0.83 nM
Kd ([14]; L-Homocysteine 0 μM): 1.93 nM
Kd ([14]; L-Homocysteine 10 μM): 1.14 nM
Kd ([14]; L-Homocysteine 50 μM): 0.62 nM

Compound: GST-hnRNP-E1(G292A): control mutant, glycine-292 mutated to alanine; behaved similar to wild-type hnRNP-E1
[^35S]cysteine-folate receptor [8]: 1.79 ± 0.13 b fmol/mg protein/h
[^35S]cysteine-folate receptor [8, 15]: 1.79 fmol/mg protein/h
HPV16 L2 protein signal [9]: insignificant reduction of HPV16 L2 protein signal
[^35S]cysteine-hnRNP-E1 [11]: 1.03 ± 0.21 b fmol/mg protein/h
[^35S]cysteine-hnRNP-E1 [11, 15]: 1.03 fmol/mg protein/h
RNA-protein gel-shift signal [12]: no RNA-protein gel-shift signals
Kd ([13]; L-Homocysteine 0 μM, listed as wild-type-like hnRNP-E1(G292A)-mutant): 1.57 nM and 1.5 nM
Kd ([14]; L-Homocysteine 0 μM): 2.02 nM
